Measurements from patent publication US20250120890A1, “Oral Care Compositions Comprising Hops Beta Acids And Tin” (The Procter & Gamble Company, priority 2023, published 2025).

Assay: Headspace measurement of DMDS and MeSH from dentifrice samples by SPME GC-SCD
Format: physicochemical
Details: 0.100 wt % in stannous dentifrice, each pair of samples with/without
Procedure: The oral care compositions of TABLE 2 were prepared by combining one or more humectants, water, sweetener(s), and metal salts, buffers, dyes, and/or stabilizing agents to create a liquid mixture. The liquid mixture was homogenized at 25° C. until homogeneous and completely dissolved. Next, sodium hydroxide (50% solution) was added to the liquid mixture, and the liquid mixture was homogenized at 25° C. until homogeneous and completely dissolved. A separate powder mixture was prepared by combining the abrasive silica, thickening silica, and opacifier, with any thickening agents, such as xanthan gum, Gantrez, and/or sodium carboxymethylcellulose. The powder mixture was then combined with the liquid mixture and homogenized completely. Next, the surfactant, such as sodium lauryl sulfate, flavor, optional Michael acceptor (“MA”), and optional hops extract were added to the mixture. The contents were homogenized at 25° C. until homogeneous, and entrained air was removed by vacuum. […]
Each salt described in Table 3 was weighed with a Mettler Toledo XSE 205 DualRange balance (Mettler Toledo USA, Columbus, OH, USA) and quantitatively transferred to a 600-mL beaker. […]

In the case of `C/C=C/C(=O)C1C(C)C=CCC1(C)C` (stereo not shown) [delta-damascone], the “Effect on headspace levels of MeSH and DMDS” value is reported as “reduced the headspace levels of MeSH and DMDS substantially”.
